Reference: ChEMBL document CHEMBL1141464, “Rational design of the first small-molecule antagonists of NHERF1/EBP50 PDZ domains” (Bioorg Med Chem Lett, 2008)
Activity calls are given as the source filed them. The calls are words filed in the database; no cut-off is given here.

How the values were obtained:
[1] = biological target: Beta-2 adrenergic receptor (Homo sapiens) (UniProt P07550); assay: Binding affinity to GST tagged human beta 2 adrenergic receptor PDZ1 domain upto 300 uM
[2] = biological target: Cystic fibrosis transmembrane conductance regulator (Homo sapiens) (UniProt P13569); assay: Binding affinity to GST tagged human CFTR PDZ2 domain upto 300 uM
Cystic fibrosis transmembrane conductance regulator (Homo sapiens), sequence (P13569 whole entry, looked up, the tested form may be a part): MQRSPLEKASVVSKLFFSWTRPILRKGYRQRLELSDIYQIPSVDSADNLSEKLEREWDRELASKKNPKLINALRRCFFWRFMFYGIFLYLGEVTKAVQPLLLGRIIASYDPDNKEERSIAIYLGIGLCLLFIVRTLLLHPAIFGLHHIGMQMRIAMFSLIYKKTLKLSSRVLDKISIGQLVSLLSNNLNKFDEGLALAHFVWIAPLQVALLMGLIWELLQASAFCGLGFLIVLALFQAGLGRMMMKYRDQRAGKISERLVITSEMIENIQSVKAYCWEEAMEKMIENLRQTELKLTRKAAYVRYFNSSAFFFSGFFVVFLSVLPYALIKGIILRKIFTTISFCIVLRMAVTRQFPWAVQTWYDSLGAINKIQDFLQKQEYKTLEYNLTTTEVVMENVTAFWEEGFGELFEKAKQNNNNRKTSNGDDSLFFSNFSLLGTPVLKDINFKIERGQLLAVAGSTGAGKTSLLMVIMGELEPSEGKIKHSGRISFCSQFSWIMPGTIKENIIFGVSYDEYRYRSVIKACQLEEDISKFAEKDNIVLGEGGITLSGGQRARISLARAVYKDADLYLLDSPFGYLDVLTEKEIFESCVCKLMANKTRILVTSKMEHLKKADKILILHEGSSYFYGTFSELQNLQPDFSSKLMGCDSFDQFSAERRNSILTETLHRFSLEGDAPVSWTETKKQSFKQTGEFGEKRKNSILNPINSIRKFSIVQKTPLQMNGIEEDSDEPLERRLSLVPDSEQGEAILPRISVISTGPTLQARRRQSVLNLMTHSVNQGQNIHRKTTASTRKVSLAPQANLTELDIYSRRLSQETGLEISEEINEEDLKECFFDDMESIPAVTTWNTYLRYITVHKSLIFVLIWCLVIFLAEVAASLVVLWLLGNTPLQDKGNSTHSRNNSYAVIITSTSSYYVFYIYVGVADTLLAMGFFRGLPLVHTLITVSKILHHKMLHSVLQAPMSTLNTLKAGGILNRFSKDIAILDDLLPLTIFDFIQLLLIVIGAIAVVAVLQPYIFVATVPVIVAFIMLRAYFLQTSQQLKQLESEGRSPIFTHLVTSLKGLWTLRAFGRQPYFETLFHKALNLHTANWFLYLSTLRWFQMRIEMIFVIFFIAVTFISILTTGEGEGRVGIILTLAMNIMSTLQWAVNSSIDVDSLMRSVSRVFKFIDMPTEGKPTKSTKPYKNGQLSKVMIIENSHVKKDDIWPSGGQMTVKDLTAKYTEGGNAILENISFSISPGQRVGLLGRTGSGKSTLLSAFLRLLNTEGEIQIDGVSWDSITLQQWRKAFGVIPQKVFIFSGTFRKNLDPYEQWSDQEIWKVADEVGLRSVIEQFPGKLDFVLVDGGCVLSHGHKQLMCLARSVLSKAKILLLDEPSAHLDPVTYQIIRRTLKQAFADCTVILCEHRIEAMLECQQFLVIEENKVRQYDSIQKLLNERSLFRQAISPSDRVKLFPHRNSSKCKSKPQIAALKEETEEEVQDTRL

Beta-2 adrenergic receptor (Homo sapiens), sequence (P07550 whole entry, looked up, the tested form may be a part): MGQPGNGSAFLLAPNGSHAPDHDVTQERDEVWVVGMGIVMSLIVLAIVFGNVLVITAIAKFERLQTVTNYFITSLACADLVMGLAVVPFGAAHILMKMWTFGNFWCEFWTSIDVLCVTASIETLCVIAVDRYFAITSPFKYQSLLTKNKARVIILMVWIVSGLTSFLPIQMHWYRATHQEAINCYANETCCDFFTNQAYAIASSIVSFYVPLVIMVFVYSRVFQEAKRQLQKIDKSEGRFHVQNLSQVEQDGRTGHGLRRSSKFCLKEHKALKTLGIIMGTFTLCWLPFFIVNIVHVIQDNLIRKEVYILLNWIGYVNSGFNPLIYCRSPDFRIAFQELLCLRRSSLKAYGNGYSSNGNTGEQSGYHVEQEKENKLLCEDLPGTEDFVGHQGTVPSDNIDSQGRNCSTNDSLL

For `CCCNC(=O)c1[nH]c2cc(C)c(C(=O)O)cc2c1CCc1ccccc1`, the Activity [1] was “inactive” and the Activity [2] was “inactive”.
